In PMC8779298, “The Campylobacter jejuni Response Regulator and Cyclic-Di-GMP Binding CbrR Is a Novel Regulator of Flagellar Motility” (Microorganisms, 2021):

What was measured:
[1] = test system: T1, CbrR; conditions: labelled compound (32P); 10 mM Tris pH 8.0, 5 mM MgCl2, 100 mM NaCl; active-site mutant
T1 construct: gene CJJ81176_0671
Target sequence in this assay (A0A0H3PJ41 whole entry E334A): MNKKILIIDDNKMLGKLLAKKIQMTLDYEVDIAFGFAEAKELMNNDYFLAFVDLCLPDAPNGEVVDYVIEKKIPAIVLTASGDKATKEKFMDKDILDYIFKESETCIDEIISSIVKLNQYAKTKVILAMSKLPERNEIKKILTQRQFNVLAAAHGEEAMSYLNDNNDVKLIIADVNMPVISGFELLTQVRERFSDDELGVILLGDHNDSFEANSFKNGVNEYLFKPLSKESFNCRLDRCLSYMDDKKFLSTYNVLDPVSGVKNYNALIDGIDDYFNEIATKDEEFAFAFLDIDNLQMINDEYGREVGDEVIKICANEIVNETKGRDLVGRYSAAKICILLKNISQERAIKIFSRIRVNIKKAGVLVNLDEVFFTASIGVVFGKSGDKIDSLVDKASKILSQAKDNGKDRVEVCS

[2] = test system: T1, CbrR; conditions: labelled compound (32P); 10 mM Tris pH 8.0, 5 mM MgCl2, 100 mM NaCl; I-site mutant
Target sequence in this assay (A0A0H3PJ41 whole entry K323A/G324A/R325A/D326A): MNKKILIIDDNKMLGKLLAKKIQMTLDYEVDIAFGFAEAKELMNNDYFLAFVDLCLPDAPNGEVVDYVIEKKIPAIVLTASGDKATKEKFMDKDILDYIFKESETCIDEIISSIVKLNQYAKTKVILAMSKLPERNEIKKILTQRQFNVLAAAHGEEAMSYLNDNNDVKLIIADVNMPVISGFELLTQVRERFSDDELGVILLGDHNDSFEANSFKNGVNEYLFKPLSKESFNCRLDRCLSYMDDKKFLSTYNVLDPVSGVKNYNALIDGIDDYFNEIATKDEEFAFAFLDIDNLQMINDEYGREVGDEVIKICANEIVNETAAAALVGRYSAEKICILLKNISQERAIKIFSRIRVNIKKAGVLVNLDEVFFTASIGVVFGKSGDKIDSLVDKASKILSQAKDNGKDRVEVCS

Structure (SMILES)	DRaCALA, nitrocellulose spot [1]	binding [2]
Nc1nc2c(ncn2[C@@H]2O[C@H](COP(=O)(O)OP(=O)(O)OP(=O)(O)O)[C@@H](O)[C@H]2O)c(=O)[nH]1 [GTP]	did not affect binding of either GTP or c-di-GMP	
Nc1nc2c(ncn2[C@@H]2O[C@@H]3COP(=O)(O)O[C@H]4[C@@H](O)[C@H](n5cnc6c(=O)[nH]c(N)nc65)O[C@@H]4COP(=O)(O)O[C@H]3[C@H]2O)c(=O)[nH]1 [c-di-GMP]	did not affect binding of either GTP or c-di-GMP	substitution of the I-site in the protein led to the loss of c-di-GMP binding
